{"source": "patent US8541464B2", "about": "“Treatment of atrial fibrillation” (HUYA Biosciences International LLC, priority 2009, dated 2013)", "key": {"[1]": {"experiment": "Plasma PK in Beagle dog after oral and IV administration", "assay_type": "in vivo", "design": "Tmax: unit not given here", "protocol": "In dogs an PO dose of 40 mg/kg (efficacious oral dose range) gives peak levels of 2.1 μg/mL (4.6 μM). […] These PK data and extrapolated conclusion are in agreement with the CV safety study, where PK after 15 minute infusion was conducted. In general, the mean concentrations peaked at the 10-minute time point, post-initiation, for each 15-minute infusion of sulcardine sulfate at 10 and 30 mg/kg (efficacious dose against ventricular arrhythmia). The mean peak plasma concentrations were 1.8 (4.2 μM) and 11.2 μg/mL (24.6 μM), respectively (data not shown). These values were well below in the case of the lower dose to barely reaching some but not all atrial cell patch clamp IC50s on various ion channels, although still associated with significant drops in mean arterial pressure, tachycardia, QT interval prolongation and changes in ventricular contractility were observed."}, "anesthetized dogs": {"test_system": "anesthetized dogs", "experiment": "Cardiovascular safety in anesthetized dogs with diphenhydramine pretreatment", "assay_type": "in vivo, dog", "conditions": "diphenhydramine pre-treated animals", "protocol": "Dogs were administered morphine (2 mg/kg subcutaneously) approximately 10-19 minutes prior to administration of anesthesia. Dogs were anesthetized with 1% α-chloralose (100 mg/kg intravenous), followed by a constant infusion of α-chloralose (35-75 mg/kg/hr, IV). Two healthy female dogs were administered escalating doses of sulcardine sulfate intravenously over 15 minutes in an acetate buffer system at dose levels of 10, 30 and 90 mg/kg with dose administrations separated by 60 minutes. Another set of two dogs received test article after pre-treatment with diphenhydramine (1 mg/kg administered 30 minutes prior to start of test article infusion). Following drug administration, dogs were evaluated for ventricular, pulmonary and peripheral hemodynamic changes using Swanz Ganz and femoral catheters as well as by monitoring of blood oxygen saturation, test article blood level, body temperature, blood biochemistry, hematology, ECG, and histamine levels.\nGroup 2 Animals: Sulcardine sulfate at 10, 30 and 90 mg/kg with diphenhydramine (1 mg/kg) administered approximately 30 minutes before treatment with 10 mg/kg sulcardine sulfate. Animals pre-treated with diphenhydramine (H1 antagonist) and dosed with sulcardine sulfate at 10 mg/kg, presented hemodynamic changes which are mediated by H2 receptors. The changes resembled those noted in Group 1 animals, but were of a reduced magnitude. […]"}, "[2]": {"experiment": "Plasma concentration in primate cardiovascular safety study", "assay_type": "in vivo, Cynomolgus monkey", "protocol": "(§1) A Swan Ganz (thermodilution catheter) was inserted into the right femoral vein via phlebotomy and advanced into the pulmonary artery for cardiac output measurements. A catheter was inserted in the left femoral artery via an arteriotomy for blood gas determination. Another catheter was inserted in the left femoral vein for blood collection for toxicokinetic evaluation. Finally, an incision was also performed on the left side of the neck to expose the left carotid artery and an electronic dual pressure sensor catheter (Millar) was placed via arteriotomy and advanced into the left ventricle. The catheter was positioned to simultaneously collect left ventricle blood pressure measurements as well as aortic pressure. In addition, a temporary catheter was placed in any of the cephalic veins for administration of Lactated Ringers at 10 mL/kg/hr throughout the course of the experiment.\nFollowing surgical preparation, hemodynamic and electrocardiographic parameters were allowed to stabilize for at least 15 minutes. The vehicle control and test article were then administered, and hemodynamic, electrocardiographic parameters were monitored. Histamine and plasma PK data was obtained. […]"}, "minipigs": {"test_system": "minipigs", "experiment": "Cardiovascular safety in anesthetized minipigs, escalating 15-minute IV infusions", "assay_type": "in vivo, minipig", "protocol": "Animals were administered morphine (2 mg/kg subcutaneously) prior to induction of anesthesia. […] Animals were placed on a heating pad set to maintain the animal's body temperature at approximately 37° C. Body temperature was monitored throughout the experiment via a rectal thermometer or via the Swan Ganz (thermodilution catheter) once implanted. Animals were intubated and placed on a ventilator supplemented with oxygen to maintain oxygenation within the normal physiological range. The animals were mechanically ventilated at a rate of 11-13 breaths/minute and a peak inspiratory pressure of 18 cm H2O. The following parameters were regularly monitored in order to ensure proper ventilation of the animals but are not reported: SpO2, inspiratory and expiratory CO2, inspiratory O2 and respiratory rate.\nas §1\nFollowing surgical preparation, hemodynamic and electrocardiographic parameters were allowed to stabilize for at least 15 minutes. The vehicle control and test article were then administered, and hemodynamic, electrocardiographic, histamine and PK parameters were monitored."}, "conscious beagle dogs": {"test_system": "conscious beagle dogs", "experiment": "Hemodynamics and plasma histamine in conscious beagle dogs, 10 minute infusions of increasing doses", "assay_type": "in vivo, beagle dog", "conditions": "for Heart rate / Histamine Concentration / Mean blood pressure: 10 minute infusion", "protocol": "The effect of sulcardine sulfate intravenously administered over a 10 minute infusion on the mean blood pressure, heart rate, and plasma histamine concentration of conscious beagle dogs was performed. Three male and female purpose-bred beagles, weighing 10.0-12.7 Kg were intravenously administered repeated increasing doses of sulcardine sulfate (cumulative dose 1-44 mg/kg) at 15 minute intervals following a 10 minute infusion of the prior dose. The administered doses were as follows: 1 mg/kg, 3 mg/kg, 10 mg/kg, and 30 mg/kg sulcardine sulfate. Heart rate, mean arterial blood pressure, and histamine concentrations were measured (Table 3) at 10 minute intervals after completion of each drug infusion period."}, "post-MI beagle dogs": {"test_system": "post-MI beagle dogs", "experiment": "Hemodynamic effects in anesthetized post-MI sudden cardiac death model", "assay_type": "in vivo, beagle dog", "conditions": "15 mg/kg", "protocol": "A hemodynamic effects study of sulcardine sulfate in an anesthetized post-MI sudden cardiac death model study was also performed. The study population consisted of ten purpose-bred, female beagle dogs, weighing 10.0-12.0 Kg. The animals had left ventricular wall ischemic injury induced by a 90-minute occlusion of the left anterior descending coronary artery followed by reperfusion. Five animals were treated with sulcardine sulfate (15 mg/kg) infused intravenously over 10 minutes, and the remaining five animals were vehicle dogs treated with 0.9% sodium chloride solution (placebo). Lowest mean arterial blood pressure was measured every 15 minutes for a total period of 120 minutes after treatment."}}, "note": "“And” between values parts separate entries of the source, which are not always exact repeats. Equal values may be shown once.", "data": [{"substance": "sulcardine sulfate", "values": [{"measurement": "K10", "setting": "[1]; 40 mg/kg po", "result": "0.1748 ± 0.0306", "unit": "h⁻¹"}, {"measurement": "Tmax", "setting": "[1]; 40 mg/kg po", "result": "1.508 ± 0.4160"}, {"measurement": "peak levels", "setting": "[1]; dogs, PO 40 mg/kg, 40 mg/kg", "result": "2.1 μg/mL and 4.6 μM"}, {"measurement": "mortality", "setting": "anesthetized dogs; 90 mg/kg, final 15-minute infusion", "result": "all animals succumbed"}, {"measurement": "severity of tachycardia", "setting": "anesthetized dogs; after completion of dosing at 30 mg/kg", "result": "above 200 % of baseline"}, {"measurement": "mean peak plasma concentration", "setting": "[2]; 90 mg/kg, 15 minute infusion", "result": "845.5 ug/mL and 1,860.1 μM"}, {"measurement": "Cmax", "setting": "[2]; primates, read-out: Cmax that led to observed side effects such as hypotension", "result": 21, "unit": "µM"}, {"measurement": "QTcC prolongation", "setting": "minipigs; 10 mg/kg, Animal 1601C", "result": 15, "unit": "%"}, {"measurement": "PR interval increase", "setting": "minipigs; 10 mg/kg, per animal", "result": "+38% and +10%"}, {"measurement": "mortality", "setting": "minipigs; 90 mg/kg, during or at completion of the 15-minute infusion", "result": "both animals succumbed"}, {"measurement": "QTcC prolongation", "setting": "minipigs; 30 and 90 mg/kg, both animals", "result": "up to 30%"}, {"measurement": "histamine levels", "setting": "minipigs; all doses", "result": "no appreciable increases"}, {"measurement": "QRS durations", "setting": "minipigs; starting at 10 mg/kg, both animals", "result": "dose dependent pattern of increasing QRS durations"}, {"measurement": "Heart rate", "setting": "conscious beagle dogs; 1 mg/kg", "result": "90.00 ± 12.58", "unit": "bpm"}, {"measurement": "Histamine Concentration", "setting": "conscious beagle dogs; 1 mg/kg", "result": "93.95 ± 24.11", "unit": "ng/mL"}, {"measurement": "Mean blood pressure", "setting": "conscious beagle dogs; 1 mg/kg", "result": "166.7 ± 10.99", "unit": "mmHg"}, {"measurement": "Heart rate", "setting": "conscious beagle dogs; 3 mg/kg", "result": "110.00 ± 10.41", "unit": "bpm"}, {"measurement": "Histamine Concentration", "setting": "conscious beagle dogs; 3 mg/kg", "result": "182.5 ± 46.11", "unit": "ng/mL"}, {"measurement": "Mean blood pressure", "setting": "conscious beagle dogs; 3 mg/kg", "result": "170.7 ± 7.36", "unit": "mmHg"}, {"measurement": "Heart rate", "setting": "conscious beagle dogs; 10 mg/kg", "result": "111.7 ± 17.64", "unit": "bpm"}, {"measurement": "Histamine Concentration", "setting": "conscious beagle dogs; 10 mg/kg", "result": "252.6 ± 85.78", "unit": "ng/mL"}, {"measurement": "Mean blood pressure", "setting": "conscious beagle dogs; 10 mg/kg", "result": "101.0 ± 28.45", "unit": "mmHg"}, {"measurement": "Heart rate", "setting": "conscious beagle dogs; 30 mg/kg", "result": "111.7 + 6.01 bpm"}, {"measurement": "Histamine Concentration", "setting": "conscious beagle dogs; 30 mg/kg", "result": "465.9 ± 27.75", "unit": "ng/mL"}, {"measurement": "Mean blood pressure", "setting": "conscious beagle dogs; 30 mg/kg", "result": "69.7 ± 14.7", "unit": "mmHg"}, {"measurement": "observations during intravenous administration over 10 minutes", "setting": "conscious beagle dogs; with erythemitous flare of face and ears and urticaria (hives)", "result": "dose-dependent decrease in arterial blood pressure"}, {"measurement": "time after completion of infusion by which arterial blood pressure was not different from baseline or placebo", "setting": "post-MI beagle dogs", "result": "≤ 50", "unit": "min"}, {"measurement": "mean arterial blood pressure compared to baseline values", "setting": "post-MI beagle dogs; at fifteen, thirty, and forty-five minutes after completing a 10 minute infusion, P<0.05", "result": "significantly lower"}]}]}
